# Measured values reported in patent US11452727B2, “Combination therapy for treating cancer” (Epizyme, Inc., priority 2017, dated 2022).
# How the values were obtained:
# Assay in all cases: In vitro combination study with tazemetostat, cell proliferation (Cell Titer Glo)
# NCI-H1299 = conditions: 7 days tazemetostat pre-treatment, 6 days co-treatment with second agent
# Calu-3 = conditions: 7 days tazemetostat pre-treatment, 6 days co-treatment with second agent
# Procedure: (§1) Initial proliferation studies were performed to determine the IC50 of tazemetostat in each cell line. For the screen, tazemetostat was used at concentrations bracketed around the IC50 value. If 50% inhibitory concentration was not reached then tazemetostat was tested starting at 10 μM.
# (§2) In order to study the effect of dual combination of tazemetostat and a second agent on cell proliferation, cells in log-linear phase growth rate were pre-treated with various concentrations of tazemetostat or DMSO for 7 days in flasks, plated in 384-well plates in the absence of compounds and co-treated on day 8 with tazemetostat or DMSO and the second agent serially diluted for additional 6 days (as depicted in FIG. 1). On day 15, plates were developed for endpoint analysis using Cell Titer Glo to measure ATP content, which was used as an indicator of cell viability. DMSO concentration was kept constant throughout the assay at 0.15% v/v.
# (§3) NCI-H1573 was cultured in DMEM: F12 Medium containing the following components: 0.02 mg/ml insulin, 0.01 mg/ml transferrin, 25 nM sodium selenite, 50 nM Hydrocortisone, 1 ng/ml Epidermal Growth Factor, 0.01 mM ethanolamine, 0.01 mM phosphorylethanolamine, 100 pM triiodothyronine, 0.5% (w/v) bovine serum albumin, 0.5 mM sodium pyruvate, 4.5 mM L-glutamine and 1% v/v Pen/Strep.
# NCI-H838 = conditions: 7 days tazemetostat pre-treatment, 6 days co-treatment with second agent
# Procedure: as §1, §2, §3
# NCI-H661 = conditions: 7 days tazemetostat pre-treatment, 6 days co-treatment with second agent
# Procedure: as §1, §2
# All cell lines were obtained from American Type Culture Collection (ATCC; Rockville, Md.). […] A427, Calu-3, Calu-6 cell lines were cultured in EMEM+10% Fetal bovine serum (FBS)+1% v/v Penicillin/Streptomycin (P/S).
# Calu-6 = conditions: 7 days tazemetostat pre-treatment, 6 days co-treatment with second agent
# NCI-H2030 = conditions: 7 days tazemetostat pre-treatment, 6 days co-treatment with second agent
# Procedure: as §1, §2
# NCI-H1703 = conditions: 7 days tazemetostat pre-treatment, 6 days co-treatment with second agent
# Procedure: as §1, §2
# NCI-H522 = conditions: 7 days tazemetostat pre-treatment, 6 days co-treatment with second agent
# Procedure: as §1, §2
# NCI-H2122 = conditions: 7 days tazemetostat pre-treatment, 6 days co-treatment with second agent
# A427 = conditions: A427; 7 days tazemetostat pre-treatment, 6 days co-treatment with second agent
# NCI-H1573 = conditions: 7 days tazemetostat pre-treatment, 6 days co-treatment with second agent
# A549 = conditions: 7 days tazemetostat pre-treatment, 6 days co-treatment with second agent
# Procedure: as §1, §2
# NCI-H460 = conditions: 7 days tazemetostat pre-treatment, 6 days co-treatment with second agent
# NCI-H1993 = conditions: 7 days tazemetostat pre-treatment, 6 days co-treatment with second agent
# NCI-H23 = conditions: 7 days tazemetostat pre-treatment, 6 days co-treatment with second agent
# HCC827 = conditions: 7 days tazemetostat pre-treatment, 6 days co-treatment with second agent
# NCI-H1793 = conditions: 7 days tazemetostat pre-treatment, 6 days co-treatment with second agent
# NCI-H2110 = conditions: 7 days tazemetostat pre-treatment, 6 days co-treatment with second agent
Structure (SMILES),combinatorial effect with tazemetostat (Loewe volume class) (NCI-H1299),combinatorial effect with tazemetostat (Loewe volume class) (Calu-3),combinatorial effect with tazemetostat (Loewe volume class) (NCI-H838),combinatorial effect with tazemetostat (Loewe volume class) (NCI-H661),combinatorial effect with tazemetostat (Loewe volume class) (Calu-6),combinatorial effect with tazemetostat (Loewe volume class) (NCI-H2030),combinatorial effect with tazemetostat (Loewe volume class) (NCI-H1703),combinatorial effect with tazemetostat (Loewe volume class) (NCI-H522),combinatorial effect with tazemetostat (Loewe volume class) (NCI-H2122),combinatorial effect with tazemetostat (Loewe volume class) (A427),combinatorial effect with tazemetostat (Loewe volume class) (NCI-H1573),combinatorial effect with tazemetostat (Loewe volume class) (A549),combinatorial effect with tazemetostat (Loewe volume class) (NCI-H460),combinatorial effect with tazemetostat (Loewe volume class) (NCI-H1993),combinatorial effect with tazemetostat (Loewe volume class) (NCI-H23),combinatorial effect with tazemetostat (Loewe volume class) (HCC827),combinatorial effect with tazemetostat (Loewe volume class) (NCI-H1793),combinatorial effect with tazemetostat (Loewe volume class) (NCI-H2110)
"CC(=O)c1c(C)c2cnc(Nc3ccc(N4CCNCC4)cn3)nc2n(C2CCCC2)c1=O [Palbociclib, palbociclib]",Anta. (volumes <−1 denoted “antagonism”),Add. (A value between −1 and 1 denoted “additivity”),Add. (A value between −1 and 1 denoted “additivity”),Syn. (Loewe volumes greater than 1 denoted “synergy”),Add. (A value between −1 and 1 denoted “additivity”),Add. (A value between −1 and 1 denoted “additivity”),Anta. (volumes <−1 denoted “antagonism”),No eff.,Anta. (volumes <−1 denoted “antagonism”),Syn. (Loewe volumes greater than 1 denoted “synergy”),Syn. (Loewe volumes greater than 1 denoted “synergy”),Add. (A value between −1 and 1 denoted “additivity”),Add. (A value between −1 and 1 denoted “additivity”),Syn. (Loewe volumes greater than 1 denoted “synergy”),Syn. (Loewe volumes greater than 1 denoted “synergy”),Add. (A value between −1 and 1 denoted “additivity”),Syn. (Loewe volumes greater than 1 denoted “synergy”),Add. (A value between −1 and 1 denoted “additivity”)
Nc1cc(C(F)(F)F)c(-c2cc(N3CCOCC3)nc(N3CCOCC3)n2)cn1 [BKM-120],Add. (A value between −1 and 1 denoted “additivity”),Add. (A value between −1 and 1 denoted “additivity”),Syn. (Loewe volumes greater than 1 denoted “synergy”),Syn. (Loewe volumes greater than 1 denoted “synergy”),Add. (A value between −1 and 1 denoted “additivity”),Add. (A value between −1 and 1 denoted “additivity”),Add. (A value between −1 and 1 denoted “additivity”),Add. (A value between −1 and 1 denoted “additivity”),Add. (A value between −1 and 1 denoted “additivity”),Syn. (Loewe volumes greater than 1 denoted “synergy”),Add. (A value between −1 and 1 denoted “additivity”),Add. (A value between −1 and 1 denoted “additivity”),Add. (A value between −1 and 1 denoted “additivity”),Syn. (Loewe volumes greater than 1 denoted “synergy”),Syn. (Loewe volumes greater than 1 denoted “synergy”),Add. (A value between −1 and 1 denoted “additivity”),Syn. (Loewe volumes greater than 1 denoted “synergy”),Add. (A value between −1 and 1 denoted “additivity”)
"CN(C)C/C=C/C(=O)Nc1cc2c(Nc3ccc(F)c(Cl)c3)ncnc2cc1O[C@H]1CCOC1 [Afatinib, afatinib]",Add. (A value between −1 and 1 denoted “additivity”),Syn. (Loewe volumes greater than 1 denoted “synergy”),Syn. (Loewe volumes greater than 1 denoted “synergy”),Add. (A value between −1 and 1 denoted “additivity”),Add. (A value between −1 and 1 denoted “additivity”),Add. (A value between −1 and 1 denoted “additivity”),Add. (A value between −1 and 1 denoted “additivity”),Syn. (Loewe volumes greater than 1 denoted “synergy”),Add. (A value between −1 and 1 denoted “additivity”),Syn. (Loewe volumes greater than 1 denoted “synergy”),Add. (A value between −1 and 1 denoted “additivity”),Anta. (volumes <−1 denoted “antagonism”),Add. (A value between −1 and 1 denoted “additivity”),Add. (A value between −1 and 1 denoted “additivity”),Add. (A value between −1 and 1 denoted “additivity”),–,Syn. (Loewe volumes greater than 1 denoted “synergy”),Syn. (Loewe volumes greater than 1 denoted “synergy”)
"COc1cc(N2CCC(N3CCN(C)CC3)CC2)ccc1Nc1ncc(Cl)c(Nc2ccccc2P(C)(C)=O)n1 [Brigatinib, brigatinib]",Add. (A value between −1 and 1 denoted “additivity”),Syn. (Loewe volumes greater than 1 denoted “synergy”),Syn. (Loewe volumes greater than 1 denoted “synergy”),Add. (A value between −1 and 1 denoted “additivity”),Add. (A value between −1 and 1 denoted “additivity”),Syn. (Loewe volumes greater than 1 denoted “synergy”),Syn. (Loewe volumes greater than 1 denoted “synergy”),Syn. (Loewe volumes greater than 1 denoted “synergy”),Add. (A value between −1 and 1 denoted “additivity”),Syn. (Loewe volumes greater than 1 denoted “synergy”),Syn. (Loewe volumes greater than 1 denoted “synergy”),Syn. (Loewe volumes greater than 1 denoted “synergy”),Syn. (Loewe volumes greater than 1 denoted “synergy”),Syn. (Loewe volumes greater than 1 denoted “synergy”),Syn. (Loewe volumes greater than 1 denoted “synergy”),–,Syn. (Loewe volumes greater than 1 denoted “synergy”),Syn. (Loewe volumes greater than 1 denoted “synergy”)
